Experimental data as given in PMC5075766, “Antiplasmodial Activity Is an Ancient and Conserved Feature of Tick Defensins” (Frontiers in Microbiology, 2016).
Where two headings read alike, the source gives them in different places. Positions of bridges follow the written chain, without caps; N, C: chain ends. Residues, ends and D or L forms follow the SMILES beside them.

System: blood stages of P. falciparum
Format: cell-based, Plasmodium falciparum
Settings: 48 h, starting parasitemia 0.5%, haematocrit 1%, SYBR Green I flow cytometry
Experimental: The growth inhibition assay was described in detail in [Fréville et al. (2013)]. Briefly, assays were carried out in 96-well plates with a starting parasitemia of 0.5% at a haematocrit of 1% using SYBR Green I ([Kelly et al., 2009]). The peptides were added to the culture at different concentrations ranging from 6.25 μM to 50 μM (final concentrations) in a volume of 250 μl of RPMI-AlbuMAX (0.5%) and incubated for an additional 48 h to allow all stages to complete one cycle. Cultures were stained for 30 min in the dark with SYBR Green I 1X (Invitrogen) diluted in 20 mM Tris pH8.8, 138 mM NaCl, and fixed with 1% paraformaldehyde. Fixed parasited red blood cells (RBC) were stored at 4°C in the dark until flow cytometry analysis. Parasite growth was assessed by flow cytometry on a BD FACSCantoII (BD Biosciences). Cell pairs were excluded from the analysis using a forward scatter (FSC)-width versus FSC-area dot plot. […] Fluorescence analysis (Green fluorescence) was performed using BD FACSDiva software (version 6.1.3, BD Biosciences) on a total of 200,000 acquired events. Fluorescence was observed as described by [Izumiyama et al. (2009)] on a two-parameter dot plot (Green fluoresecence-FSC). Fluorescence of non-infected RBC was adjusted to plot between […]. Results are expressed as the percentage of growth inhibition. […]

## CC[C@H](C)[C@H](NC(=O)[C@@H]1CSSC[C@@H]2NC(=O)[C@H](Cc3c[nH]cn3)NC(=O)[C@H](CCCNC(=N)N)NC(=O)[C@H](CC(=O)O)NC(=O)[C@@H]3CSSC[C@H](NC(=O)[C@H]([C@@H](C)O)NC(=O)[C@H](CC(C)C)NC(=O)[C@H](CCCCN)NC(=O)[C@H](Cc4c[nH]c5ccccc45)NC(=O)[C@H](CCCNC(=N)N)NC(=O)CNC(=O)CNC(=O)[C@H](CSSC[C@H](NC(=O)[C@H](Cc4ccccc4)NC(=O)[C@H](Cc4ccccc4)NC(=O)CN)C(=O)N4CCC[C@H]4C(=O)N[C@@H](Cc4ccc(O)cc4)C(=O)N[C@@H](CC(N)=O)C(=O)NCC(=O)N[C@@H](Cc4ccc(O)cc4)C(=O)N3)NC(=O)[C@H](Cc3ccc(O)cc3)NC(=O)CNC(=O)CNC(=O)[C@H](CCCNC(=N)N)NC(=O)[C@H](CCCNC(=N)N)NC(=O)[C@H](CCCNC(=N)N)NC(=O)[C@H](CC(C)C)NC(=O)[C@H](CCCCN)NC(=O)[C@H](CCCCN)NC(=O)[C@H](CCCNC(=N)N)NC2=O)C(=O)N[C@@H]([C@@H](C)CC)C(=O)N1)C(=O)N[C@@H](CCSC)C(=O)N[C@@H](CC(N)=O)C(=O)O [DefMT5] (H-GFFCPYNGYCDRHCRKKLRRRGGYCGGRWKLTCICIMN-OH; disulfide 4-25, 10-33, 14-35; N-terminus assumed)
6.25 μM peptide
  P. falciparum growth inhibition: 20%
50 μM peptide (highest concentration tested)
  P. falciparum growth inhibition: ~100%
